Reference: ChEMBL document CHEMBL1201862, “PubChem BioAssay data set” (2004)
Calls of active or inactive are those of the source.

Experiments:
[1] = target: T1, Mannose-6-phosphate isomerase (Homo sapiens, UniProt P34949); assay: phosphomannose isomerase inhibition – biochemical, fluorescence intensity, confirmation (AID 1535)
T1 sequence (P34949 whole entry): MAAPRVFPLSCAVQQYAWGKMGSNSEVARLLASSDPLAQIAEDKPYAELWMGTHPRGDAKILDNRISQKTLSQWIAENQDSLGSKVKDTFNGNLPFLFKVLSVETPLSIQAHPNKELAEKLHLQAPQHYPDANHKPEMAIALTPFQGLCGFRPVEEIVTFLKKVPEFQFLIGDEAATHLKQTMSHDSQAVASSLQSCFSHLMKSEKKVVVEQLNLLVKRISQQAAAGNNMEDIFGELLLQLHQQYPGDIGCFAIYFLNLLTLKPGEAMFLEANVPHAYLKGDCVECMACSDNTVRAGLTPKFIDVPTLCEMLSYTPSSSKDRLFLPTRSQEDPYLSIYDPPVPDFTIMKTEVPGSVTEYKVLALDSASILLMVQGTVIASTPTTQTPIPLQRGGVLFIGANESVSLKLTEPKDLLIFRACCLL

Phosphomannomutase 2 = target: T2, Phosphomannomutase 2 (Homo sapiens, UniProt O15305); assay: Counter screen SAR assay for PMM2 inhibitors via a fluorescence intensity assay. [Related pubchem assays (depositor defined):AID1545, AID1574]
T2 sequence (O15305 whole entry): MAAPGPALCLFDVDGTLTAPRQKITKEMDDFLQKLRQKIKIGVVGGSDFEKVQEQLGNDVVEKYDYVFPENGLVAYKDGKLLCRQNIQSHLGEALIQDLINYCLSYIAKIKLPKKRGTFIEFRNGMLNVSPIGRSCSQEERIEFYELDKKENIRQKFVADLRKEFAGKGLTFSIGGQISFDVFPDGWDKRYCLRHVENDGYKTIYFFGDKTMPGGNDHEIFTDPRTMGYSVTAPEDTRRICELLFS

Bcl-2-related protein A1 = target: T3, Bcl-2-related protein A1 (Mus musculus, UniProt Q07440); assay type: functional;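 further: confirmatory dose–response counterscreen on Bfl-1, used to check hits from a UBC13 polyubiquitin inhibitor campaign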
T3 sequence (Q07440 whole entry): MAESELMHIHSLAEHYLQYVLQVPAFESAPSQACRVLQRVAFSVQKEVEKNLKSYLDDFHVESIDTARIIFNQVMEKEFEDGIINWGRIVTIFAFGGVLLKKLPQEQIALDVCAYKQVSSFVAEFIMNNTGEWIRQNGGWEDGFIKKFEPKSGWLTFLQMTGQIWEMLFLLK

[2] = target: T4, Ubiquitin-conjugating enzyme E2 N (Homo sapiens, UniProt P61088); assay type: functional
T4 sequence (P61088 whole entry): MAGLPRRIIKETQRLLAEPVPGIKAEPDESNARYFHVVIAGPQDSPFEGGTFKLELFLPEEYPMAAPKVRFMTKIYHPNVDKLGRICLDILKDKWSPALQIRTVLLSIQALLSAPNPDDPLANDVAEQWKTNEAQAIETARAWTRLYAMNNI

[3] = target: T4, Ubiquitin-conjugating enzyme E2 N; assay type: functional; remark: listed apart in the source
[4] = target: T5, Replicative DNA helicase DnaB (Mycobacterium tuberculosis, UniProt P9WMR3); assay: DnaB intein splicing inhibitors, dose response, biochemical, cell-free fluorescence (AID 449749); assay type: functional
T5 sequence (P9WMR3 whole entry): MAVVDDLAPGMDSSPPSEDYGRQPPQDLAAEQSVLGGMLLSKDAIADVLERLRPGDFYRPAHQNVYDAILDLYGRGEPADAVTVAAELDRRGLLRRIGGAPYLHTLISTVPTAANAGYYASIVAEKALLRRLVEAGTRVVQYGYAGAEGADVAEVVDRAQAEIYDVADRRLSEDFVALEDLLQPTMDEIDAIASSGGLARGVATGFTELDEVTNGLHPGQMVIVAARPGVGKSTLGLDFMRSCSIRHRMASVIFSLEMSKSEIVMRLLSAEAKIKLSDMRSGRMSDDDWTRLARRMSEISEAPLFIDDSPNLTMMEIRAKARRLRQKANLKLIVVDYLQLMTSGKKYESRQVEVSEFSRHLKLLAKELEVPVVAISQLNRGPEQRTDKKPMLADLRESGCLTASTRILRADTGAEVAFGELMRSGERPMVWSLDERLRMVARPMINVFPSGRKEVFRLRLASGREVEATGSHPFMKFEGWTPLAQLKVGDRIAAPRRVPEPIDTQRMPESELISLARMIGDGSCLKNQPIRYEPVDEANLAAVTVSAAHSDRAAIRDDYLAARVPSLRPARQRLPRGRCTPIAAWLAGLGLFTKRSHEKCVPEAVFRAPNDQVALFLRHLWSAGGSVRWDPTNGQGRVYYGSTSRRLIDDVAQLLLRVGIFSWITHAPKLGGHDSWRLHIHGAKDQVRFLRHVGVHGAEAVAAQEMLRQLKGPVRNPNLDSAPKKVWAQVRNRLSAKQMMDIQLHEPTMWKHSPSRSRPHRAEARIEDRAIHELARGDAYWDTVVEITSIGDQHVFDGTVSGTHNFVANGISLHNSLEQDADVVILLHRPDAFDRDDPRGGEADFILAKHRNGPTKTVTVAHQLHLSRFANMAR

[5] = target: G-protein coupled receptor 55 (Homo sapiens, UniProt Q9Y2T6); assay: blockers of GPR55 signalling, imaged – imaging, image-based, counter-screen for GPR35 antagonist project, SAR follow-up (AID 2397); assay type: functional
[6] = viability of uninfected HEp-2 cells – cell-based, HTS, cytotoxicity control for RSV inhibitor project, dose response (AID 2410); assay type: functional; conditions: human respiratory syncytial virus
Protein RecA = target: T6, Protein RecA (Mycobacterium tuberculosis, UniProt P9WHJ3); assay: Fluorescence Cell-Free Homogeneous Dose Retest to Identify Inhibitors of RecA-Intein Splicing Activity. [Related pubchem assays (depositor defined):AID2097, AID2223, AID489010, AID492950]; assay type: functional
T6 sequence (P9WHJ3 whole entry): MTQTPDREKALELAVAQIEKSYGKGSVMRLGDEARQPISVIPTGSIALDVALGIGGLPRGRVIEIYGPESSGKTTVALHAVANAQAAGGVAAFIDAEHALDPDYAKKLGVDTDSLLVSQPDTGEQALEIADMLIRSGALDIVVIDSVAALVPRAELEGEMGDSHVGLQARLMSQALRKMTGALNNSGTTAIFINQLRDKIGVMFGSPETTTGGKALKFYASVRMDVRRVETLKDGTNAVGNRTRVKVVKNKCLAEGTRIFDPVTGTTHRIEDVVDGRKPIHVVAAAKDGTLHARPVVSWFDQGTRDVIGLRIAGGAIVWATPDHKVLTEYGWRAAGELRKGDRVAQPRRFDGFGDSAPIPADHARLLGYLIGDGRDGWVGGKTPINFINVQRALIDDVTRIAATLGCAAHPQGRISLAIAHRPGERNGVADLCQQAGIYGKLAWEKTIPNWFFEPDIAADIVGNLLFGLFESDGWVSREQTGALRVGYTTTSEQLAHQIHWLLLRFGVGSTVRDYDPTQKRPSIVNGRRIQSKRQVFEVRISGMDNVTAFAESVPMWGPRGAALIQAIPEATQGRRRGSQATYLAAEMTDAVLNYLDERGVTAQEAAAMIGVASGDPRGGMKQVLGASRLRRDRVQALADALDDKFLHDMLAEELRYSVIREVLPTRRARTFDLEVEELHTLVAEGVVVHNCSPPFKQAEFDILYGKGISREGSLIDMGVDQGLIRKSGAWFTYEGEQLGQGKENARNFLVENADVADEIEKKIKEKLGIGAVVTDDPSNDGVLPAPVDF

[7] = target: E3 ubiquitin-protein ligase XIAP (Homo sapiens, UniProt P98170); assay: Counter Screen using XIAP-Bir3 for Chemical Antagonists of Bir1/2 domains of IAP-family anti-apoptotic proteins. [Related pubchem assays (depositor defined):AID1018, AID1449, AID1514, AID1638, AID1749, AID1750, AID488957, AID488963]
Chain of E3 ubiquitin-protein ligase XIAP (P98170 whole entry): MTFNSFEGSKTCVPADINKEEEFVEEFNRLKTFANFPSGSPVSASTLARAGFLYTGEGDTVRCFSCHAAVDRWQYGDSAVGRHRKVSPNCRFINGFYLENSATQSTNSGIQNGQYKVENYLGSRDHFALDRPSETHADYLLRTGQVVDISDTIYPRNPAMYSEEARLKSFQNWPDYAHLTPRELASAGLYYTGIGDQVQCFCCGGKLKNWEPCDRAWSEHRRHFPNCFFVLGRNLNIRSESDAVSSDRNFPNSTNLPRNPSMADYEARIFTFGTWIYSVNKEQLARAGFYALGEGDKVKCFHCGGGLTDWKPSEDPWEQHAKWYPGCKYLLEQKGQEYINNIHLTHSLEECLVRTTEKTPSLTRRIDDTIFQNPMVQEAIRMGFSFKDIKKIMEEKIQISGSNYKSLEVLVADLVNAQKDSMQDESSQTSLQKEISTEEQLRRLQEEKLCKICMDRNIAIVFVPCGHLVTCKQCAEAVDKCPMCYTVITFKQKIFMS

Cytochrome P450 1A2 = target: T7, Cytochrome P450 1A2 (Homo sapiens, UniProt P05177);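 further: PubChem cytochrome P450 panel assay, CYP1A2 panel member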
T7 sequence (P05177 whole entry): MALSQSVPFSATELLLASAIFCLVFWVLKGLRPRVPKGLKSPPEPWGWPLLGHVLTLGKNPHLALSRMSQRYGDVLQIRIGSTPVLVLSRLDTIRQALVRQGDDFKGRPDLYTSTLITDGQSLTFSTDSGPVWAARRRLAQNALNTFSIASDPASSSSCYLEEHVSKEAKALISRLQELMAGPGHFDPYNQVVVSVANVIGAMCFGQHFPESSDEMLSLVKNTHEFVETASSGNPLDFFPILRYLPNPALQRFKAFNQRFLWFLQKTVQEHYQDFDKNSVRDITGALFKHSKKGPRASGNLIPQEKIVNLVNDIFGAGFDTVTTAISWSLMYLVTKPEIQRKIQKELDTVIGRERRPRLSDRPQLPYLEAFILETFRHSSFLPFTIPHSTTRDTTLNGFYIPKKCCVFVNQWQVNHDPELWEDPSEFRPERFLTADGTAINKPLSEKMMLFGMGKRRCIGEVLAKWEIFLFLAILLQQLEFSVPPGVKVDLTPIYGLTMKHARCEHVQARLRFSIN

Cytochrome P450 2D6 = Cytochrome P450 2D6 (Homo sapiens, UniProt P10635);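 further: CYP2D6 member of a cytochrome P450 panel assay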
Cytochrome P450 2C9 = Cytochrome P450 2C9 (Homo sapiens, UniProt P11712)
Chain of Cytochrome P450 2C9 (P11712 whole entry): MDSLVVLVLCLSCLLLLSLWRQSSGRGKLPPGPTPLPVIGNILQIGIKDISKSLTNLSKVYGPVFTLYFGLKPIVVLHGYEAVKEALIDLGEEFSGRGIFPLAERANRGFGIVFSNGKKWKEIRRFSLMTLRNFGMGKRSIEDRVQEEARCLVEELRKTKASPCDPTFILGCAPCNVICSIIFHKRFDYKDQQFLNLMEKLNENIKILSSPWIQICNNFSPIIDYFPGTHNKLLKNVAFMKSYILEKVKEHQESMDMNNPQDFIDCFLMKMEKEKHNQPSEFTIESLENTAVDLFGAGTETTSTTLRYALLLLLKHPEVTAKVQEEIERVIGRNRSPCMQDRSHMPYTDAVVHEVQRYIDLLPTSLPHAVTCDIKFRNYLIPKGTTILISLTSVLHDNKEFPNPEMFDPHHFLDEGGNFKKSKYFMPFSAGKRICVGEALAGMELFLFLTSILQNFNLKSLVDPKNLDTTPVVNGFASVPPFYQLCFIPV

[8] = target: T8, Voltage-gated N-type calcium channel alpha-1B subunit/Amyloid beta A4 precursor protein-binding family A member 1 (Homo sapiens, UniProt Q00975+Q02410); assay type: protein assay
T8 sequence (Q00975 whole entry): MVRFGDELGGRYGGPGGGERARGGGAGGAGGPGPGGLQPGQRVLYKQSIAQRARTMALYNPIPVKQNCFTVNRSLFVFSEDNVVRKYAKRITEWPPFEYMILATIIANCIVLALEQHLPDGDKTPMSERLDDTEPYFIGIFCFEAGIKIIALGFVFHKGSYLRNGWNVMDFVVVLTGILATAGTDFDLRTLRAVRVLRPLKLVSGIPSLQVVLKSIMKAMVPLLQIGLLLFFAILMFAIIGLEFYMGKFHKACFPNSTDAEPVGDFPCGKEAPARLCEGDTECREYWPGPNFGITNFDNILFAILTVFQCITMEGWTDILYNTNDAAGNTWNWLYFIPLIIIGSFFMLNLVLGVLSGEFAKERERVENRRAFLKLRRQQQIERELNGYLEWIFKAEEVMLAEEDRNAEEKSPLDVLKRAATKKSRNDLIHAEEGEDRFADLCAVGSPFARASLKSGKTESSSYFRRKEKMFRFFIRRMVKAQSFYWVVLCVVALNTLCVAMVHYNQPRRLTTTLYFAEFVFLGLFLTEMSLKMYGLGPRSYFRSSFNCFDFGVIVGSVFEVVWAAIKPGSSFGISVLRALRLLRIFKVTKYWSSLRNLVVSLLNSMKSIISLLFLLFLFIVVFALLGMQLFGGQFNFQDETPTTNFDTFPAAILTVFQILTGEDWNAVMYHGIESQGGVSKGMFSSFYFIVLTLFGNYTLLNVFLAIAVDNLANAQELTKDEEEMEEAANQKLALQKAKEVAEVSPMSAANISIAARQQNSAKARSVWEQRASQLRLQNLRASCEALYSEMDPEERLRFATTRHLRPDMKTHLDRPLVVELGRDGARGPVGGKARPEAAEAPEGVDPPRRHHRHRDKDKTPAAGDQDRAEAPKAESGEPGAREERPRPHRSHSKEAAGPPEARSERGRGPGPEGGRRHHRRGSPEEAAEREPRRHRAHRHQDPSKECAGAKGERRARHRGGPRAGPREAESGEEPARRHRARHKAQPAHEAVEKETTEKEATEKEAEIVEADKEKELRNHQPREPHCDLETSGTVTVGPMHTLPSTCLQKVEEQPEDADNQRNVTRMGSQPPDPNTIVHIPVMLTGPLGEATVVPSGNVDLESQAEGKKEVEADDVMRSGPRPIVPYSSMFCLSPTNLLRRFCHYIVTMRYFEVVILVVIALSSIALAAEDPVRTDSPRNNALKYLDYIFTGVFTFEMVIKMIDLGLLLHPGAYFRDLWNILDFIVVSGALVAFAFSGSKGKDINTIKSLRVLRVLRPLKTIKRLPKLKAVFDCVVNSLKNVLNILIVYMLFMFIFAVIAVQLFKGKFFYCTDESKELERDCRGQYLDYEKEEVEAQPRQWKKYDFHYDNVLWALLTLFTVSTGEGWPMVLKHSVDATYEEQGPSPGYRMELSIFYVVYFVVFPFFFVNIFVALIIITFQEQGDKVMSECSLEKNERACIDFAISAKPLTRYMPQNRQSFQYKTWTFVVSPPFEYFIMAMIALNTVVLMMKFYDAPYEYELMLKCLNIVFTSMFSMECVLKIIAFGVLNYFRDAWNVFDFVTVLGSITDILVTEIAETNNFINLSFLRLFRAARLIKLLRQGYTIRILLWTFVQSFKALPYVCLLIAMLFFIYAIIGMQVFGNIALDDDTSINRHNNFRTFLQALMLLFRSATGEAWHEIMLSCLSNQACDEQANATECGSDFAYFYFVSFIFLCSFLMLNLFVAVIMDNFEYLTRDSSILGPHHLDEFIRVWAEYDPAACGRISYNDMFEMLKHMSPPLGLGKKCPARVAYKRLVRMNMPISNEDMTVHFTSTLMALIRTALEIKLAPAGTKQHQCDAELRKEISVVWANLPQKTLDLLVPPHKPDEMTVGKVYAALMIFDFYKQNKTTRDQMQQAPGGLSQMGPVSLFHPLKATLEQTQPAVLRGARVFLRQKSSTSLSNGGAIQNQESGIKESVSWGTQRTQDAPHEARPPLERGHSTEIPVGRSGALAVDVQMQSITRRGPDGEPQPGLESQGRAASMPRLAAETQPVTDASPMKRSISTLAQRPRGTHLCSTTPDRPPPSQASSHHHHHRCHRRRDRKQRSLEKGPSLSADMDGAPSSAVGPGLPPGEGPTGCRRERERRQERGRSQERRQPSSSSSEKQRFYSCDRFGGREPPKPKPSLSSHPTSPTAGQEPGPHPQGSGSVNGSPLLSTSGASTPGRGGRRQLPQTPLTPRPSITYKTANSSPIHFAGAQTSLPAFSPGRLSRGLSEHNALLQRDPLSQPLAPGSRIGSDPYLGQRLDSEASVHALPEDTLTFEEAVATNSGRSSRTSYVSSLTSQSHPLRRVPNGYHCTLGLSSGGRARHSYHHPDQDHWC
T8 sequence (Q02410 whole entry): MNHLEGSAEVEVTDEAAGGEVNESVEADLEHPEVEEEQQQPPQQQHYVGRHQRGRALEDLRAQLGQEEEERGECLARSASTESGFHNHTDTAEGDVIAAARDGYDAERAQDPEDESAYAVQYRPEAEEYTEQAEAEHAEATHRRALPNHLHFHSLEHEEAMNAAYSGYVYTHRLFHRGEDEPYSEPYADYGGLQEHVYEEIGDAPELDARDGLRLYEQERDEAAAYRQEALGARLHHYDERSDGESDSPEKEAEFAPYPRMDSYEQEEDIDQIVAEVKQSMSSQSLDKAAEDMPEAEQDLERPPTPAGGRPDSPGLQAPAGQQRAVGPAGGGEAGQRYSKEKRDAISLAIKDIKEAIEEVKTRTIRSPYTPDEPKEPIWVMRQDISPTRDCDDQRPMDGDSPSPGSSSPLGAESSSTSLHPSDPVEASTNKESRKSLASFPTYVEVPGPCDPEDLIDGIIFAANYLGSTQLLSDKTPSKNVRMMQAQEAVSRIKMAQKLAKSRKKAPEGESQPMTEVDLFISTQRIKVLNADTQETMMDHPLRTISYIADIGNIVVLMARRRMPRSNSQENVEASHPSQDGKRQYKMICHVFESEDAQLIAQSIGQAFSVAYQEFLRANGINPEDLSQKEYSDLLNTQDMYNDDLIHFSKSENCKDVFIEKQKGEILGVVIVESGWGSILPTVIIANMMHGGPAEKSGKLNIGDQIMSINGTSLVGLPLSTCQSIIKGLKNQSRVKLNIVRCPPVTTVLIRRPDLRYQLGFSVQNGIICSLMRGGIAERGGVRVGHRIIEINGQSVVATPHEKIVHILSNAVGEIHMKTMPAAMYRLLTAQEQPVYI

[9] = target: T8, Voltage-gated N-type calcium channel alpha-1B subunit/Amyloid beta A4 precursor protein-binding family A member 1; assay type: protein assay; remark: listed apart in the source
[10] = target: DNA dC->dU-editing enzyme APOBEC-3A (Homo sapiens, UniProt P31941); assay: A3A deaminase inhibition for selectivity – biochemical, dose response (AID 504722); assay type: functional
Chain of DNA dC->dU-editing enzyme APOBEC-3A (P31941 whole entry): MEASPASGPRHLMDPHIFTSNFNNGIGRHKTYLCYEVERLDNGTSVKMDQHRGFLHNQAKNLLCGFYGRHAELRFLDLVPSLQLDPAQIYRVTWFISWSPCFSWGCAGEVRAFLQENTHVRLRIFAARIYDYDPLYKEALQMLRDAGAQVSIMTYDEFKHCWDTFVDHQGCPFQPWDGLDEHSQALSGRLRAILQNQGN

Leucine aminopeptidase = target: T9, Leucine aminopeptidase (Plasmodium falciparum 3D7, UniProt Q8IL11); assay: P. falciparum M17LAP inhibitors, primary screen, biochemical, fluorogenic H-Leu-NHMec substrate, 1536-well (AID 1619); assay type: functional
T9 sequence (Q8IL11 whole entry): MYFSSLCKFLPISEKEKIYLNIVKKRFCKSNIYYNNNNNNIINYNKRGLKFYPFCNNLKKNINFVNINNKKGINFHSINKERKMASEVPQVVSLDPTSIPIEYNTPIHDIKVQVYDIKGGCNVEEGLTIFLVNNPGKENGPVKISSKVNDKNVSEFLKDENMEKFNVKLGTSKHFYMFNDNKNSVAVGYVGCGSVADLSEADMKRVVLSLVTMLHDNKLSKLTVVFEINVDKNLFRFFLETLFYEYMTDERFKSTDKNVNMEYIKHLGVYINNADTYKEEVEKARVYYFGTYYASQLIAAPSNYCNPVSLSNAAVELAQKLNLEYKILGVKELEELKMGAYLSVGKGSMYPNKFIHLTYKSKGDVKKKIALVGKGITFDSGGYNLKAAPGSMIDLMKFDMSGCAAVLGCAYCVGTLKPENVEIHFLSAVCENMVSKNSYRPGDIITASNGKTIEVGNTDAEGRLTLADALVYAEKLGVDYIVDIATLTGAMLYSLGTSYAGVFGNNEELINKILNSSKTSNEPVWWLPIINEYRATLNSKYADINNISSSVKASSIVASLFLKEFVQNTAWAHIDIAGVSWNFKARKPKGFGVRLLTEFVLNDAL

[11] = target: DNA dC->dU-editing enzyme APOBEC-3G (Homo sapiens, UniProt Q9HC16); assay: Dose Response confirmation of small molecule APOBEC3G DNA Deaminase Inhibitors via a fluorescence-based single-stranded DNA deaminase assay. [Related pubchem assays (depositor defined):AID493012, AID493028]; assay type: functional
Cytochrome P450 2C19 = Cytochrome P450 2C19 (Homo sapiens, UniProt P33261); assay: Cytochrome panel assay with activity outcomes. Panel member name: p450-cyp2c19 Compounds with AC50 equal or less than 10 uM are considered active; assay type: functional; conditions: read-out: AC50
Chain of Cytochrome P450 2C19 (P33261 whole entry): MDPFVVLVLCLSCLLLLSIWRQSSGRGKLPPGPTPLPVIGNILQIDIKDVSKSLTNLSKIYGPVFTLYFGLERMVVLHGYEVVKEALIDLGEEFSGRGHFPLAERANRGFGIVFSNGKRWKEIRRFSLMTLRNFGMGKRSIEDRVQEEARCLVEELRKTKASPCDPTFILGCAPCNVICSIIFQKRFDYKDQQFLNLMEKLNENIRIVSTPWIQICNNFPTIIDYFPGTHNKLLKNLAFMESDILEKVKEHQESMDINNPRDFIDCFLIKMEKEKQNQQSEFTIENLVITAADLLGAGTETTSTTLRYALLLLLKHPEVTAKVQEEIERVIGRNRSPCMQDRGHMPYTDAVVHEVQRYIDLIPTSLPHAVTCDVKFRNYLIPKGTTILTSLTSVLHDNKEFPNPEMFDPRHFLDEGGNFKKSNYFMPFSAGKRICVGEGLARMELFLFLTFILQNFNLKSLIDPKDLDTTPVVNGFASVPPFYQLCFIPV

## Cc1ccc(NP(=O)(c2ccccc2)c2nc3ccccc3s2)cc1 (stereo not drawn)
[1]
  IC50: > 50 µM (inactive)
Phosphomannomutase 2
  IC50: > 100 µM (inactive)

## CCN1C(=O)c2cccc3c(NC(=O)c4ccc(S(=O)(=O)N5CCOCC5)cc4)ccc1c23
Bcl-2-related protein A1
  IC50: > 20 µM (inactive)
[2]
  IC50: 9.74 µM (active)
[3]
  IC50: 10.4 µM (active)

## O=C(CCCN1C(=O)/C(=C\c2cccs2)SC1=S)Nc1ccc(O)cc1
[4]
  AC50: 2.19 µM (active)
[5]
  IC50: 29.5 µM (inactive)
[6]
  CC50: 12.5 µM (active)
Protein RecA
  EC50: 5.95 µM (active)

## CCC(=O)NC(=S)NNC(=O)c1ccc(O)cc1
Bcl-2-related protein A1
  IC50: > 20 µM (inactive)
[2]
  IC50: 8.9 µM (active)
[3]
  IC50: 12.2 µM (active)

## O=c1[nH]n(-c2ccc([N+](=O)[O-])cc2)c(=O)c2ccccc12
[7]
  IC50: > 20 µM (inactive)

## CC(C)NC(=O)C1CC(=O)N(c2ccc(F)c(Cl)c2)C1 (stereo not drawn)
Cytochrome P450 1A2
  AC50: 2 µM (inconclusive)
Cytochrome P450 2D6
  AC50: 14.1 µM (inconclusive)
Cytochrome P450 2C9
  AC50: inconclusive

## CN(CCOC(=O)/C=C/c1ccco1)Cc1ccccc1
[8]
  IC50: 29.1 µM (active)
[9]
  IC50: 18.5 µM (active)

## CCOc1ccc(N2C(=O)CC(Sc3n[nH]c(-c4ccccc4)n3)C2=O)cc1 (stereo not drawn)
[10]
  IC50: > 100 µM (inactive)
Leucine aminopeptidase
  IC50: 11.1 µM (active)
[11]
  IC50: 14 µM (active)

## COc1ccc(NC(=O)c2ccc(C)cc2Cl)c([N+](=O)[O-])c1
Cytochrome P450 2C9
  AC50: inconclusive
Cytochrome P450 2C19
  AC50: 3.55 µM (inconclusive)
